We go through six molecules from PMC9787607, “A Novel Protocol for the Synthesis of 1,2,4-Oxadiazoles Active against Trypanosomatids and Drug-Resistant Leukemia Cell Lines” (Tropical Medicine and Infectious Disease, 2022).

Some results are limits rather than exact numbers.

One series concerns LLC-MK2 cells. As to the kind of experiment: Cytotoxicity to LLC-MK2 host cells (MTT). The series is classed as cell-based. The following applies: Macaca mulatta, LLC-MK2; 120 h, MTT. The protocol:
(§1) LLC-MK2 kidney fibroblasts (ATCC) and RAW 264.7 macrophages (ATCC) were cultivated in culture flasks in complete DMEM with 5% FBS at 37 °C in 5% CO2. The LLC-MK2 cell monolayer was detached by treatment with trypsin-EDTA 0.05% for 5 min at 37 °C. The RAW cell monolayer was detached mechanically. In both cases, the cells were centrifuged at 480× g for 6 min and resuspended in complete DMEM with 5% FBS, and the cell density was determined by counting with trypan-blue dye exclusion on Neubauer chambers before use.
(§2) LLC-MK2 cells were seeded in a 96-well microplate (1.0 × 10^4 cells per well) in complete DMEM with 5% FBS (120 µL per well). After incubation for 24 h at 37 °C in 5% CO2, the medium was renewed, and compounds were added at a range of concentrations in triplicate (50 μM or 100–1 μM). Untreated cells and cells treated with DMEM and 10% DMSO were used as negative and positive controls, respectively. Vehicle control containing DMEM and 0.3% DMSO was maintained for comparison. After incubation for 120 h at 37 °C in 5% CO2, the medium was renewed, and MTT salt solution in PBS was added (3.0 mM, 20 µL per well). After incubation for 2 h at 37 °C in 5% CO2, the supernatant was removed, and MTT formazan was dissolved in DMSO (150 µL per well). Absorbance was measured using a microplate reader at 570 nm.
(§3) The percent cell or parasite viability was calculated by the formula: % viability = [(A − P)/(N − P)] × 100, A = absorbance of specific well, P = positive control, N = negative control. Determination of half-maximal effective concentrations (EC50), calculated by logarithmic regression, and significance analysis (p < 0.05), using ANOVA and Dunnett’s test, by GraphPad Prism 7.0 software. The results are expressed as the mean and standard deviation (SD) of three independent experiments.

Series [1] concerns T. cruzi amastigotes (Tulahuen C2C4 LacZ strain). The series can be described thus: microbe, parasite or virus in culture. As to conditions: Trypanosoma cruzi, TULAHUEN; for viability at 50 µM: LLC-MK2, 120 h, screening at 50 μM, 120 h, compared with untreated controls. The series is classed as cell-based, Trypanosoma cruzi. Here is the method:
To a monolayer of 1.0 × 10^7 LLC-MK2 cells in a 150 cm^2 culture flask were added 5.0 × 10^7 trypomastigotes of T. cruzi expressing the […] (Tulahuen C2C4 LacZ) in complete DMEM with 2.5% FBS. The infection was allowed to occur for 24 h, the supernatant was removed, and the cell monolayer was washed with PBS. Complete DMEM with 2.5% FBS was renewed every 2 days up to the sixth day after infection. Trypomastigote forms were collected daily from the supernatant between days 7 and 12 after infection, enriched by differential centrifugation (1500× g for 10 min, 5580× g for 20 min), and resuspended in complete DMEM with 5% FBS. Parasite density was determined by counting the mobile trypomastigotes on Neubauer chambers before use.
. The medium was renewed, and trypomastigote forms of T. cruzi (Tulahuen C2C4 LacZ strain, 2.0 × 10^5 parasites per well) were added. After incubation for 24 h at 37 °C in 5% CO2, the cell monolayer was washed with PBS to remove noninternalized parasites. DMEM without phenol red and 5% FBS was added, and infected cells were treated with compounds at a range of concentrations in triplicate (50 μM or 100–1 μM). Untreated infected cells and noninfected LLC-MK2 cells were used as negative and positive controls, respectively. Vehicle control containing DMEM without phenol red and 0.3% DMSO was maintained for comparison. After incubation for 120 h at 37 °C in 5% CO2, a solution containing […] and 0.8% IGEPAL CA-630 in PBS (30 µL per well), followed by further incubation for 2 h at 37 °C in 5% CO2. Absorbance was measured using a microplate reader at 570 nm.
as §3

A short description of series [2]: Cytotoxicity to LLC-MK2 host cells (MTT). The format is cell-based. The following applies: rhesus monkey, screening at 50 μM, 120 h. The protocol: as §1, §2, §3
The test system of another series is Lucena-1 (K562/VCR). As to the kind of experiment: cells. The format is cell-based, human. As to conditions: for RR (relative resistance) Lucena-1: (EC50 MDR cells)/(EC50 parental cells), Lucena-1/K562; for EC50: Homo sapiens, Lucena 1, 72 h, read-out: EC50 Lucena-1. The protocol: (§4) The CML cell lines K562, Lucena-1 (K562/VCR), and FEPS (K562/DNR) were cultured in RPMI-1640 medium supplemented with 25 mM HEPES and 2 g L^−1 sodium bicarbonate adjusted to pH 7.4 with NaOH, 100 U penicillin and […] streptomycin. All media were supplemented with 10% FBS. Dr. Vivian M. Rumjanek (Instituto de Bioquímica Médica, UFRJ, Brazil) kindly donated Lucena-1 and FEPS cells. Briefly, K562 cells were exposed to increasing concentrations of the chemotherapeutic drugs vincristine sulfate (VCR) and daunorubicin hydrochloride (DNR) (both from Sigma-Aldrich), as described previously. Lucena-1 (K562/VCR) and FEPS (K562/DNR) cells were cultured in the presence of either 60 nM VCR or 500 nM DNR to maintain the MDR phenotypes. For subcultures, cells were harvested every three days followed by washing with cold FBS, and a final concentration of 2 × 10^4 cells mL^−1 was maintained at 37 °C in 5% CO2.
(§5) Cell viability was determined by the 3-(4,5-dimethylthiazol-2-yl)-2,5-diphenyltetrazolium (MTT) colorimetric assay. CML cells (2 × 10^4 cells·mL^−1) were incubated for 72 h at 37 °C, followed by treatment with compounds at a range of concentrations (100–1 μM). Negative controls were prepared with 0.5% DMSO. An MTT salt solution was added to each well to a final concentration of 0.5 g·L^−1, and plates were incubated at 37 °C in 5% CO2 for 3 h. After centrifugation, 200 μL DMSO was added to dissolve the dark-blue formazan crystals formed by MTT reduction. Absorbance was measured on a microplate reader at 570 nm, which is directly proportional to formazan contents and indicative of living cells.
as §3

Another series concerns FEPS (K562/DNR). As to the kind of experiment: MTT cytotoxicity to MDR CML cell line FEPS. The following applies: for RR (relative resistance) FEPS: (EC50 MDR cells)/(EC50 parental cells), FEPS/K562; for EC50: Homo sapiens, K562, 72 h, MTT. The format is cell-based, human. The protocol:
as §4, §5, §3

Series [3] can be described thus: Cytotoxicity to BALB/c mouse total splenocytes (MTT). The format is cell-based. As to conditions: male, total splenocytes (primary), 100 μM, 48 h, compared to the untreated control (Table S1). The protocol:
BALB/c mouse total splenocytes were harvested from male mice between 6–8 weeks old. After euthanasia, the spleens were removed and macerated in DMEM. After centrifugation, the cells were treated with hemolytic ACK buffer at 37 °C for 5 min. […] After incubation for 48 h at 37 °C in 5% CO2, cell viability was determined after the addition of 20 µL per well of a solution containing MTT salt (3.0 mM) and phenazine metasulphate (0.72 mM). After further incubation for 1 h at 37 °C, the medium was removed, and DMSO was added to dissolve the dark-blue formazan crystals formed by MTT reduction. Absorbance was measured on a microplate reader at 570 nm.
as §3

The subject of a further series is K562. The series can be described thus: MTT cytotoxicity to CML cell line K562. The series is classed as cell-based. As to conditions: Homo sapiens, 72 h. Here is the method:
as §4, §5, §3

Series [4] has as its system L. amazonensis promastigotes. As to the kind of experiment: Anti-L. amazonensis promastigote assessment (MTT). As to conditions: Leishmania amazonensis; 48 h, MTT; read-out: EC50 L. amazonensis promastigotes. The series is classed as cell-based. The protocol:
Promastigotes of L. amazonensis (MHOM/BR/75/Josefa) were cultured in Schneider’s insect medium (SIM) with 10% FBS. Parasites were harvested at the stationary growth phase for assessment against promastigotes and 24 h after cultures reached the stationary growth phase for infection assays. […]. Complete SIM media and amphotericin B (AmB) at 10 µM were used as negative and positive controls, respectively. A vehicle control containing SIM with 10% SFB media and 0.3% DMSO was maintained for comparison. The final volume of the experiment was 100 µL. After incubation for 48 h at 27 °C, MTT salt solution in PBS was added (3.0 mM, 20 µL per well). After incubation for 2 h at 27 °C, the MTT formazan was dissolved by adding 120 µL of solubilizing buffer (50% isopropanol, 40% acetate buffer pH 5.4, 10% Triton-X). Absorbance was measured using a microplate reader at 570 nm.
as §3

[5] abbreviates: LLC-MK2 cells (kidney fibroblasts).

Take `O=C(Cn1ccnc1[N+](=O)[O-])NCc1ccccc1` [Benznidazole, reference compound]: the EC50 with LLC-MK2 cells is above 100 µM; in series [1] (in LLC-MK2, 120 h, read-out: EC50 T. cruzi intracellular amastigotes), 1.5 ± 0.2 µM. This molecule also displayed a viability at 50 µM in series [1] of 23.2 ± 1.4%.
Take `C(=C\c1cccs1)/c1nc(-c2ccccc2)no1` [Compound 17, (E)-3-phenyl-5-[2-thiophen-2-yl-vinyl]-1,2,4-oxadiazole]: the melting point lay within 93 to 95 °C. This molecule displayed a viability at 120 h, 50 µM in series [2] of 86.2 ± 7.1%. In addition, in the series on Lucena-1 (K562/VCR), the “RR (relative resistance) Lucena-1” value is on record as below 0.72 and the EC50 worked out at 71.9 ± 0.6 µM. Further, in the series on FEPS (K562/DNR), the “RR (relative resistance) FEPS” value is below 0.56 and the EC50 came to 55.7 ± 17.2 µM. The molecule also came in with a viability at 50 µM in series [1] of 69.6 ± 6.3%. Besides, the viability at 48 h, 100 µM in series [3] came to 99 ± 8.4%. Besides, the EC50 in the series with K562 was above 100 µM. The EC50 in [4] was found to be 77.6 ± 6.3 µM.
Take `O=[N+]([O-])c1ccc(/C=C/c2nc(-c3ccccc3)no2)cc1` [Compound 20, (E)-3-phenyl-5-[2-(4-nitrophenyl)vinyl]-1,2,4-oxadiazole]: the melting point fell in the range of 205 to 208 °C. Moreover, the viability at 120 h, 50 µM in [2] (setting [5]) was found to be 78.2 ± 2.1%. In the series with Lucena-1 (K562/VCR), the “RR (relative resistance) Lucena-1” value is given as 1.33 and the EC50 is 45.7 ± 4.3 µM. Further, in the series with FEPS (K562/DNR), the “RR (relative resistance) FEPS” value was 1.35 and it took 46.4 ± 4.9 µM to reach a half-maximal effect (EC50). For the same molecule, in series [1], the viability at 50 µM worked out at 74.5 ± 5.4%. This molecule also had a viability at 48 h, 100 µM in series [3] of 77.8 ± 4.2%. In addition, in the series with K562, the EC50 worked out at 34.4 ± 7.4 µM. Further, the EC50 in series [4] is above 100 µM.
For `COc1cc(-c2noc(/C=C/c3ccccc3)n2)cc(OC)c1OC` [Compound 21, (E)-3-(3,4,5-trimethoxyphenyl)-5-[2-phenylvinyl]-1,2,4-oxadiazole], the melting point lay within 138 to 140 °C. In addition, the viability at 120 h, 50 µM in [2] (setting [5]) was determined as 88.5 ± 4.7%. For the same molecule, in the series with Lucena-1 (K562/VCR), the “RR (relative resistance) Lucena-1” value is listed as below 0.69 and the EC50 worked out at 68.6 ± 10.1 µM. Also, in the series on FEPS (K562/DNR), the “RR (relative resistance) FEPS” value is recorded as below 0.28 and the EC50 came to 27.7 ± 5.2 µM. The molecule also returned a viability at 50 µM in [1] of 77.3 ± 2%. For the same molecule, the viability at 48 h, 100 µM in [3] came out at 76.8 ± 6.6%. This molecule came in with an EC50 in the series on K562 above 100 µM. In series [4], the EC50 was above 100 µM.
For `COc1cccc(/C=C/c2nc(-c3cc(OC)c(OC)c(OC)c3)no2)c1` [Compound 22, (E)-3-(3,4,5-trimethoxyphenyl)-5-[2-(3-methoxyphenyl)-vinyl]-1,2,4-oxadiazole], the melting point was 117 to 119 °C. In series [2] (setting [5]), this molecule yielded a viability at 120 h, 50 µM of 87.1 ± 1.7%. In the series with Lucena-1 (K562/VCR), the “RR (relative resistance) Lucena-1” value is recorded as below 0.73 and the EC50 was found to be 72.9 ± 3 µM. Besides, in the series with FEPS (K562/DNR), the “RR (relative resistance) FEPS” value is given as below 0.36 and a half-maximal response (EC50) required 36.1 ± 12.4 µM. The viability at 50 µM in [1] stood at 66.1 ± 2.3%. For the same molecule, the viability at 48 h, 100 µM in series [3] came to 63.5 ± 2.4%. Also, the EC50 in the series on K562 was above 100 µM. In series [4], the concentration giving a half-maximal response (EC50) was above 100 µM.
`COc1cc(-c2noc(/C=C/c3ccco3)n2)cc(OC)c1OC` [Compound 25, (E)-3-(3,4,5-trimethoxyphenyl)-5-[2-(fur-2-yl)vinyl]-1,2,4-oxadiazole]: the melting point is 144 to 146 °C. The molecule also yielded a viability at 120 h, 50 µM in series [2] (setting [5]) of 73.5 ± 1.7%. Besides, in the series on Lucena-1 (K562/VCR), the “RR (relative resistance) Lucena-1” value came to 1.05 and the EC50 was 76.6 ± 6.1 µM. For the same molecule, in the series with FEPS (K562/DNR), the “RR (relative resistance) FEPS” value came out at 0.74 and the EC50 was 53.7 ± 3.6 µM. Besides, in series [1], the viability at 50 µM was found to be 79.5 ± 5.5%. In series [3], the viability at 48 h, 100 µM was 63.7 ± 4.7%. In the series with K562, this molecule yielded an EC50 of 72.8 ± 9.1 µM. The EC50 in series [4] was above 100 µM.
